Measurements from patent US20110077294A1, “R-(-) / S-(+)-7-[3-N SUBSTITUTED AMINO-2 HYDROXYPROPOXY] FLAVONES” (priority 2006, published 2011).
Marks after values point to notes of the source that are not given here.

Tests used:
C57BL/KsBom-db/db mice [1] = test: Blood glucose profile of db/db mice during daily treatment (antihyperglycemic activity); format: in vivo; conditions: for Blood glucose % change compared to control, day 7: day 7, vs sham; for Blood glucose % change compared to control, day 8: day 8, vs sham; for Blood glucose % change compared to control, day 9: day 9, vs sham; for Comparative antihyperglycemic activity: Average Fall: day given in brackets, in %
Method: C57BL/KsBom-db/db mice (12-18 weeks old), weighing around 35+g bred in the animal house of CDRI, Lucknow, were used in the present experiments. The mice were housed in groups of 3 to 5 (same sex) in a room controlled for temperature (23±2.0 ° C.) and 12/12 hours light/dark cycle (lights on at 6.00 am). Body weight of each animal was measured daily from day 1 to day 10 of the experiment. All animals had free access to fresh water and normal pellet diet except on the day of the postprandial protocol (day 6) and during the overnight fast before the OGTT on day 10. The animals always had access to water during experimental periods. Blood glucose was checked every morning up till day 10. On day 10 an oral glucose tolerance test (OGTT) was performed after an overnight fasting. Blood glucose was measured at −30.0 min and test compounds were administered. The blood glucose was again measured at 0 min just post treatment and at this juncture glucose solution was given at a dose of 3 gm/kg to all the groups including the vehicle treated group. The blood glucose levels were checked at 30 min, 60 min, 90 min and 120 min post glucose administration. The data was analyzed for its significance on Prism software.

C57BL/KsBom-db/db mice [2] = test: Serum lipid profile of treated db/db mice (antidyslipidemic activity); format: in vivo
[3] = db/db mice, 10 mg/kg, statistically insignificant
[4] = db/db mice, test dose 10 mg/kg, in %
[5] = db/db mice, test dose 25 mg/kg, in %

Q: `CC(C)(C)NC[C@H](O)COc1ccc2c(=O)cc(-c3cc(OCc4ccccc4)cc(OCc4ccccc4)c3)oc2c1` [S-002-853 (S), (S)-(+)-7-(3-tert-Butylamino-2-hydroxypropoxy)-3′,5′-dibenzyloxyflavone] was tested. Which “Blood glucose % change compared to control, day 7” value (C57BL/KsBom-db/db mice [1]; 10 mg/kg) did it give?
A: −42.0%

Q: What about the “Blood glucose, day 8 post treatment” value (C57BL/KsBom-db/db mice [1]; 10 mg/kg) of the same compound?
A: 12.1 ± 3.39 mM

Q: And the “Blood glucose % change compared to control, day 8” value (C57BL/KsBom-db/db mice [1]; 10 mg/kg)?
A: −42.2%

Q: What about the “Blood glucose, day 9 post treatment” value (C57BL/KsBom-db/db mice [1]; 10 mg/kg) of the same compound?
A: 14.2 ± 2.98 mM

Q: What about the “Blood glucose % change compared to control, day 9” value (C57BL/KsBom-db/db mice [1]; 10 mg/kg) of the same compound?
A: −39.4%

Q: What about the “antihyperglycemic and antidyslipidemic/antihyperlipidemic activity (in words)” value (C57BL/KsBom-db/db mice [1]; 25 mg/kg) of the same compound?
A: significant antihyperglycemic and antidyslipidemic activity

Q: And the “Blood glucose, day 1 post treatment” value (C57BL/KsBom-db/db mice [1]; 25 mg/kg, day 1)?
A: 22.4 ± 1.24 mM

Q: What about the “Blood glucose % change compared to control, day 1” value (C57BL/KsBom-db/db mice [1]; 25 mg/kg, day 1, vs sham) of the same compound?
A: +0.20%

Q: What about the “Blood glucose, day 2 post treatment” value (C57BL/KsBom-db/db mice [1]; 25 mg/kg, day 2) of the same compound?
A: 16.6 ± 3.85 mM

Q: And the “Blood glucose % change compared to control, day 2” value (C57BL/KsBom-db/db mice [1]; 25 mg/kg, day 2, vs sham)?
A: −33.6%

Q: What about the “Blood glucose, day 3 post treatment” value (C57BL/KsBom-db/db mice [1]; 25 mg/kg, day 3) of the same compound?
A: 12.9 ± 3.00 mM

Q: And the “Blood glucose % change compared to control, day 3” value (C57BL/KsBom-db/db mice [1]; 25 mg/kg, day 3, vs sham)?
A: −39.5%

Q: What about the “Blood glucose, day 4 post treatment” value (C57BL/KsBom-db/db mice [1]; 25 mg/kg, day 4) of the same compound?
A: 10.6 ± 2.89 mM

Q: And the “Blood glucose % change compared to control, day 4” value (C57BL/KsBom-db/db mice [1]; 25 mg/kg, day 4, vs sham)?
A: −54.9%

Q: And the “Blood glucose, day 5 post treatment” value (C57BL/KsBom-db/db mice [1]; 25 mg/kg, day 5)?
A: 8.80 ± 3.84 mM

Q: What about the “Blood glucose % change compared to control, day 5” value (C57BL/KsBom-db/db mice [1]; 25 mg/kg, day 5, vs sham) of the same compound?
A: −55.6%

Q: And the “Blood glucose, day 6 post treatment” value (C57BL/KsBom-db/db mice [1]; 25 mg/kg, day 6)?
A: 7.60 ± 3.46 mM

Q: And the “Blood glucose % change compared to control, day 6” value (C57BL/KsBom-db/db mice [1]; 25 mg/kg, day 6, vs sham)?
A: −61.1%

Q: What about the “maximum percentage fall in blood glucose” value (C57BL/KsBom-db/db mice [1]; 25 mg/kg, day 6 of treatment) of the same compound?
A: around 61.1%

Q: What about the “Blood glucose, day 7 post treatment” value (C57BL/KsBom-db/db mice [1]; 25 mg/kg, day 7) of the same compound?
A: 10.6 ± 2.20 mM

Q: What about the “Blood glucose % change compared to control, day 7” value (C57BL/KsBom-db/db mice [1]; 25 mg/kg) of the same compound?
A: −52.2%

Q: What about the “Blood glucose, day 8 post treatment” value (C57BL/KsBom-db/db mice [1]; 25 mg/kg) of the same compound?
A: 8.30 ± 1.13 mM

Q: What about the “Blood glucose % change compared to control, day 8” value (C57BL/KsBom-db/db mice [1]; 25 mg/kg) of the same compound?
A: −60.0%

Q: What about the “Blood glucose, day 9 post treatment” value (C57BL/KsBom-db/db mice [1]; 25 mg/kg) of the same compound?
A: 7.90 ± 1.30 mM

Q: And the “Blood glucose % change compared to control, day 9” value (C57BL/KsBom-db/db mice [1]; 25 mg/kg)?
A: −58.5%

Q: And the “antihyperglycemic and antidyslipidemic/antihyperlipidemic activity (in words)” value (C57BL/KsBom-db/db mice [1]; 25 mg/kg, listed as S-isomer)?
A: marked antihyperglycemic and antihyperlipidemic effect compared to racemic mixture

Q: What about the “Comparative antihyperglycemic activity: Average Fall” value (C57BL/KsBom-db/db mice [1]; test dose 10 mg/kg) of the same compound?
A: 42.2*

Q: What about the “Comparative antihyperglycemic activity: Average Fall” value (C57BL/KsBom-db/db mice [1]; test dose 25 mg/kg) of the same compound?
A: 61.1**

Q: And the “enhancement of HDL-C as compared to the racemic compound” value (C57BL/KsBom-db/db mice [2]; 25 mg/kg body weight)?
A: more than two folds

Q: What about the “Serum lipid profile: Cholesterol” value (C57BL/KsBom-db/db mice [2]; db/db mice, 10 mg/kg) of the same compound?
A: 87.5 ± 3.00 mg/dL

Q: And the “Serum lipid profile: HDL-Chol” value (C57BL/KsBom-db/db mice [2]; db/db mice, 10 mg/kg)?
A: 66.4 ± 2.87 mg/dL

Q: And the “Serum lipid profile: Triglycerides” value (C57BL/KsBom-db/db mice [2]; db/db mice, 10 mg/kg)?
A: 110 ± 4.08 mg/dL

Q: And the “Cholesterol % change compared to control” value (C57BL/KsBom-db/db mice [2]; db/db mice, 10 mg/kg, vs sham)?
A: −16.3%

Q: What about the “HDL-Chol % change compared to control” value (C57BL/KsBom-db/db mice [2]; db/db mice, 10 mg/kg, vs sham) of the same compound?
A: +17.4%

Q: What about the “Triglycerides % change compared to control” value (C57BL/KsBom-db/db mice [2]; db/db mice, 10 mg/kg, vs sham) of the same compound?
A: −17.9%

Q: And the “elevation in HDL-cholesterol level than control” value (C57BL/KsBom-db/db mice [2]; [3])?
A: +17.4%

Q: What about the “lowering of serum cholesterol” value (C57BL/KsBom-db/db mice [2]; [3]) of the same compound?
A: around 16.3%

Q: What about the “lowering of serum triglycerides” value (C57BL/KsBom-db/db mice [2]; [3]) of the same compound?
A: ~17.9%

Q: What about the “decrease in LDL-cholesterol level” value (C57BL/KsBom-db/db mice [2]; db/db mice, 25 mg/kg) of the same compound?
A: around 29.4%

Q: And the “elevation in HDL-cholesterol level than control” value (C57BL/KsBom-db/db mice [2]; db/db mice, 25 mg/kg)?
A: 33.2%

Q: What about the “lowering of serum cholesterol” value (C57BL/KsBom-db/db mice [2]; db/db mice, 25 mg/kg) of the same compound?
A: around 21.8%

Q: What about the “lowering of serum triglycerides” value (C57BL/KsBom-db/db mice [2]; db/db mice, 25 mg/kg) of the same compound?
A: ~14.5%

Q: And the “Comparative antihyperlipidemic activity: HDL-C” value (C57BL/KsBom-db/db mice [2]; db/db mice, test dose 10 mg/kg)?
A: +17.4^ns

Q: And the “Comparative antihyperlipidemic activity: T-Chol” value (C57BL/KsBom-db/db mice [2]; [4])?
A: 16.3*

Q: What about the “Comparative antihyperlipidemic activity: TG” value (C57BL/KsBom-db/db mice [2]; [4]) of the same compound?
A: 17.9*

Q: And the “Comparative antihyperlipidemic activity: HDL-C” value (C57BL/KsBom-db/db mice [2]; [5])?
A: +33.2*

Q: And the “Comparative antihyperlipidemic activity: T-Chol” value (C57BL/KsBom-db/db mice [2]; [5])?
A: 27.8*

Q: And the “Comparative antihyperlipidemic activity: TG” value (C57BL/KsBom-db/db mice [2]; [5])?
A: 14.5**
